Assays:
Carboplatin = compound: C1CC(C1)(C(=O)[O-])C(=O)[O-].N.N.[Pt+2] [Carboplatin]; details: max 10 µM
How it was run: (§1)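 Viability was measured with CellTiter-Glo 2.0 luminescence after 72 hours of dosing at a final DMSO of typically 0.2%, and scaled between blank-well and DMSO-well means. Beforehand, cancer cell lines sat 24 hours at 37°C and 5% CO2 in 1536-well plates in 7.5 μl DMEM/F12 or RPMI with 10% FBS. A non-linear mixed effects model fitted two-parameter logistic curves to the dose responses. The single-agent IC50 comes from these fits.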

AZD5363 = compound: C1CN(CCC1(C(=O)N[C@@H](CCO)C2=CC=C(C=C2)Cl)N)C3=NC=NC4=C3C=CN4 [AZD5363]; details: max 10 µM
How it was run: as §1

AZD1775 = compound: C=CCn1c(=O)c2cnc(Nc3ccc(N4CCN(C)CC4)cc3)nc2n1-c1cccc(C(C)(C)O)n1 [AZD1775]; details: max 3 µM
How it was run: as §1

Trametinib = compound: CC(=O)Nc1cccc(-n2c(=O)n(C3CC3)c(=O)c3c(Nc4ccc(I)cc4F)n(C)c(=O)c(C)c32)c1 [Trametinib]; details: max 1 µM
How it was run: as §1

Paclitaxel = compound: CC(=O)O[C@H]1C(=O)[C@@]2(C)[C@H]([C@H](OC(=O)c3ccccc3)[C@]3(O)C[C@H](OC(=O)[C@H](O)[C@@H](NC(=O)c4ccccc4)c4ccccc4)C(C)=C1C3(C)C)[C@]1(OC(C)=O)CO[C@@H]1C[C@@H]2O [Paclitaxel]; details: max 3 µM
How it was run: as §1

Palbociclib = compound: CC(=O)c1c(C)c2cnc(Nc3ccc(N4CCNCC4)cn3)nc2n(C2CCCC2)c1=O [Palbociclib]; details: max 10 µM
How it was run: as §1

AZD1390 = compound: CC(C)n1c(=O)n(C)c2cnc3cc(F)c(-c4ccc(OCCCN5CCCCC5)nc4)cc3c21 [AZD1390]; details: max 0.3 µM
How it was run: as §1

Venetoclax = compound: CC1(C)CCC(CN2CCN(c3ccc(C(=O)NS(=O)(=O)c4ccc(NCC5CCOCC5)c([N+](=O)[O-])c4)c(Oc4cnc5[nH]ccc5c4)c3)CC2)=C(c2ccc(Cl)cc2)C1 [Venetoclax]; details: max 1 µM
How it was run: as §1

Dasatinib = compound: CC1=C(C(=CC=C1)Cl)NC(=O)C2=CN=C(S2)NC3=CC(=NC(=N3)C)N4CCN(CC4)CCO [Dasatinib]; details: max 2 µM
How it was run: as §1

SG3199 = compound: CC1=CN2[C@@H](C1)C=NC3=CC(=C(C=C3C2=O)OC)OCCCCCOC4=C(C=C5C(=C4)N=C[C@@H]6CC(=CN6C5=O)C)OC [SG3199]; details: max 0.001 µM
How it was run: as §1

AZD2811 = compound: CCN(CCO)CCCOc1ccc2c(Nc3cc(CC(=O)Nc4cccc(F)c4)[nH]n3)ncnc2c1 [AZD2811]; details: max 1 µM
How it was run: as §1

SN-38 = compound: CCc1c2c(nc3ccc(O)cc13)-c1cc3c(c(=O)n1C2)COC(=O)[C@]3(O)CC [SN-38]; details: max 0.3 µM
How it was run: as §1

AZD0156 = compound: CN(C)CCCOc1ccc(-c2ccc3ncc4c(c3c2)n(C2CCOCC2)c(=O)n4C)cn1 [AZD0156]; details: max 3 µM
How it was run: as §1

AZD4320 = compound: CN(CC[C@H](CSC1=CC=CC=C1)NC2=C(C=C(C=C2)S(=O)(=O)NC(=O)C3=CC=C(C=C3)N4CCC(CC4)[C@H](C5=CC=CC=C5C6=CC=C(C=C6)Cl)O)S(=O)(=O)C(F)(F)F)CCO [AZD4320]; details: max 1 µM
How it was run: as §1

Alisertib = compound: COc1cc(Nc2ncc3c(n2)-c2ccc(Cl)cc2C(c2c(F)cccc2OC)=NC3)ccc1C(=O)O [Alisertib]; details: max 10 µM
How it was run: as §1

Etoposide = compound: COc1cc([C@@H]2c3cc4c(cc3[C@@H](O[C@@H]3O[C@@H]5CO[C@@H](C)O[C@H]5[C@H](O)[C@H]3O)[C@H]3COC(=O)[C@H]23)OCO4)cc(OC)c1O [Etoposide]; details: max 10 µM
How it was run: as §1

Gefitinib = compound: COc1cc2ncnc(Nc3ccc(F)c(Cl)c3)c2cc1OCCCN1CCOCC1 [Gefitinib]; details: max 10 µM
How it was run: as §1

Prexasertib = compound: COc1cccc(OCCCN)c1-c1cc(Nc2cnc(C#N)cn2)n[nH]1 [Prexasertib]; details: max 1 µM
How it was run: as §1

Doxorubicin = compound: COc1cccc2c1C(=O)c1c(O)c3c(c(O)c1C2=O)C[C@@](O)(C(=O)CO)C[C@@H]3O[C@H]1C[C@H](N)[C@H](O)[C@H](C)O1 [Doxorubicin]; details: max 1 µM
How it was run: as §1

AZD5153 = compound: COc1nnc2ccc(N3CCC(c4ccc(OCCN5CCN(C)C(=O)[C@H]5C)cc4)CC3)nn12 [AZD5153]; details: max 1 µM
How it was run: as §1

Lapatinib = compound: CS(=O)(=O)CCNCc1ccc(-c2ccc3ncnc(Nc4ccc(OCc5cccc(F)c5)c(Cl)c4)c3c2)o1 [Lapatinib]; details: max 10 µM
How it was run: as §1

AZD8186 = compound: C[C@@H](Nc1cc(F)cc(F)c1)c1cc(C(=O)N(C)C)cc2c(=O)cc(N3CCOCC3)oc12 [AZD8186]; details: max 10 µM
How it was run: as §1

Crizotinib = compound: C[C@@H](Oc1cc(-c2cnn(C3CCNCC3)c2)cnc1N)c1c(Cl)ccc(F)c1Cl [Crizotinib]; details: max 10 µM
How it was run: as §1

Savolitinib = compound: C[C@@H](c1ccc2nccn2c1)n1nnc2ncc(-c3cnn(C)c3)nc21 [Savolitinib]; details: max 1 µM
How it was run: as §1

AZD6738 = compound: C[C@@H]1COCCN1C2=NC(=NC(=C2)C3(CC3)[S@](=N)(=O)C)C4=C5C=CNC5=NC=C4 [AZD6738]; details: max 10 µM
How it was run: as §1

AZD5991 = compound: Cc1c2c(nn1C)CSCc1cc(n(C)n1)CSc1cc(c3ccccc3c1)OCCCc1c(C(=O)O)n(C)c3c-2c(Cl)ccc13 [AZD5991]; details: max 1 µM
How it was run: as §1

AZD7648 = compound: Cc1cc2ncnn2cc1Nc1ncc2c(n1)n(C1CCOCC1)c(=O)n2C [AZD7648]; details: max 10 µM
How it was run: as §1

Taselisib = compound: Cc1nc(-c2cn3c(n2)-c2ccc(-c4cnn(C(C)(C)C(N)=O)c4)cc2OCC3)n(C(C)C)n1 [Taselisib]; details: max 10 µM
How it was run: as §1

Selumetinib = compound: Cn1cnc2c(F)c(Nc3ccc(Br)cc3Cl)c(C(=O)NOCCO)cc21 [Selumetinib]; details: max 10 µM
How it was run: as §1

SRA737 = compound: N#Cc1cnc(Nc2cc(NC[C@H]3CNCCO3)c(C(F)(F)F)cn2)cn1 [SRA737]; details: max 10 µM
How it was run: as §1

MK-2206 = compound: NC1(c2ccc(-c3nc4ccn5c(=O)[nH]nc5c4cc3-c3ccccc3)cc2)CCC1 [MK-2206]; details: max 10 µM
How it was run: as §1

Gemcitabine = compound: Nc1ccn([C@@H]2O[C@H](CO)[C@@H](O)C2(F)F)c(=O)n1 [Gemcitabine]; details: max 0.3 µM
How it was run: as §1

[1] = compound: O=C(Nc1ccc2[nH]nc(-c3ccncc3)c2c1)[C@@H]1CCN(CC(=O)N2CCN(c3ccc(-c4ncccn4)cc3)CC2)C1; details: max 5 µM
How it was run: as §1

Olaparib = compound: O=C(c1cc(Cc2n[nH]c(=O)c3ccccc23)ccc1F)N1CCN(C(=O)C2CC2)CC1 [Olaparib]; details: max 10 µM
How it was run: as §1

5-Fluorouracil = compound: O=c1[nH]cc(F)c(=O)[nH]1 [5-Fluorouracil]; details: max 20 µM
How it was run: as §1

With MOG-G-UVW (Low Grade Glioma) the “IC50, cell viability 72 h” value (Carboplatin) was greater than 10000 nM, the “IC50, cell viability 72 h” value (AZD5363) was greater than 10000 nM and the “IC50, cell viability 72 h” value (AZD1775) was 582 nM. The “IC50, cell viability 72 h” value (Trametinib) was 148 nM, the “IC50, cell viability 72 h” value (Paclitaxel) was 3 nM and the “IC50, cell viability 72 h” value (Palbociclib) was greater than 10000 nM. For the same cell line, the “IC50, cell viability 72 h” value (AZD1390) was greater than 300 nM, the “IC50, cell viability 72 h” value (Venetoclax) was greater than 1000 nM and the “IC50, cell viability 72 h” value (Dasatinib) was greater than 2000 nM. For the same cell line, the “IC50, cell viability 72 h” value (SG3199) was greater than 1 nM, the “IC50, cell viability 72 h” value (AZD2811) was 344 nM and the “IC50, cell viability 72 h” value (SN-38) was 11.7 nM. For the same cell line, the “IC50, cell viability 72 h” value (AZD0156) was greater than 3000 nM, the “IC50, cell viability 72 h” value (AZD4320) was greater than 1000 nM and the “IC50, cell viability 72 h” value (Alisertib) was 562 nM. For the same cell line, the “IC50, cell viability 72 h” value (Etoposide) was 1600 nM, the “IC50, cell viability 72 h” value (Gefitinib) was greater than 10000 nM and the “IC50, cell viability 72 h” value (Prexasertib) was 26.5 nM. The “IC50, cell viability 72 h” value (Doxorubicin) was 156 nM, the “IC50, cell viability 72 h” value (AZD5153) was 340 nM and the “IC50, cell viability 72 h” value (Lapatinib) was greater than 10000 nM. The “IC50, cell viability 72 h” value (AZD8186) was 9250 nM, the “IC50, cell viability 72 h” value (Crizotinib) was 4010 nM and the “IC50, cell viability 72 h” value (Savolitinib) was greater than 1000 nM. The “IC50, cell viability 72 h” value (AZD6738) was 5120 nM, the “IC50, cell viability 72 h” value (AZD5991) was greater than 1000 nM and the “IC50, cell viability 72 h” value (AZD7648) was greater than 10000 nM. The “IC50, cell viability 72 h” value (Taselisib) was 3690 nM, the “IC50, cell viability 72 h” value (Selumetinib) was greater than 10000 nM and the “IC50, cell viability 72 h” value (SRA737) was greater than 10000 nM. For the same cell line, the “IC50, cell viability 72 h” value (MK-2206) was greater than 10000 nM, the “IC50, cell viability 72 h” value (Gemcitabine) was 27.3 nM and the “IC50, cell viability 72 h” value [1] was greater than 5000 nM. For the same cell line, the “IC50, cell viability 72 h” value (Olaparib) was greater than 10000 nM and the “IC50, cell viability 72 h” value (5-Fluorouracil) was greater than 20000 nM.

In the case of HAL-01 (B-Lymphoblastic Leukemia), the “IC50, cell viability 72 h” value (Carboplatin) was greater than 10000 nM, the “IC50, cell viability 72 h” value (AZD5363) was greater than 10000 nM and the “IC50, cell viability 72 h” value (AZD1775) was 327 nM. The “IC50, cell viability 72 h” value (Trametinib) was greater than 1000 nM, the “IC50, cell viability 72 h” value (Paclitaxel) was 335 nM and the “IC50, cell viability 72 h” value (Palbociclib) was 1890 nM. The “IC50, cell viability 72 h” value (AZD1390) was greater than 300 nM, the “IC50, cell viability 72 h” value (Venetoclax) was 109 nM and the “IC50, cell viability 72 h” value (Dasatinib) was greater than 2000 nM. The “IC50, cell viability 72 h” value (SG3199) was greater than 1 nM, the “IC50, cell viability 72 h” value (AZD2811) was greater than 1000 nM and the “IC50, cell viability 72 h” value (SN-38) was 5.69 nM. The “IC50, cell viability 72 h” value (AZD0156) was greater than 3000 nM, the “IC50, cell viability 72 h” value (AZD4320) was 496 nM and the “IC50, cell viability 72 h” value (Alisertib) was 109 nM. For the same cell line, the “IC50, cell viability 72 h” value (Etoposide) was 2700 nM, the “IC50, cell viability 72 h” value (Gefitinib) was greater than 10000 nM and the “IC50, cell viability 72 h” value (Prexasertib) was 16.6 nM. The “IC50, cell viability 72 h” value (Doxorubicin) was 496 nM, the “IC50, cell viability 72 h” value (AZD5153) was 91.8 nM and the “IC50, cell viability 72 h” value (Lapatinib) was greater than 10000 nM. The “IC50, cell viability 72 h” value (AZD8186) was 1130 nM, the “IC50, cell viability 72 h” value (Crizotinib) was 2840 nM and the “IC50, cell viability 72 h” value (Savolitinib) was greater than 1000 nM. The “IC50, cell viability 72 h” value (AZD6738) was 652 nM, the “IC50, cell viability 72 h” value (AZD5991) was greater than 1000 nM and the “IC50, cell viability 72 h” value (AZD7648) was greater than 10000 nM. The “IC50, cell viability 72 h” value (Taselisib) was 360 nM, the “IC50, cell viability 72 h” value (Selumetinib) was greater than 10000 nM and the “IC50, cell viability 72 h” value (SRA737) was 528 nM. The “IC50, cell viability 72 h” value (MK-2206) was 1000 nM, the “IC50, cell viability 72 h” value (Gemcitabine) was 2.47 nM and the “IC50, cell viability 72 h” value [1] was greater than 5000 nM. For the same cell line, the “IC50, cell viability 72 h” value (Olaparib) was greater than 10000 nM and the “IC50, cell viability 72 h” value (5-Fluorouracil) was greater than 20000 nM.

Reference: the supplement of paper PMC11061612
